Reference: patent US20250084097A1, “MACROCYCLIC AMIDE COMPOUNDS AND APPLICATION THEREOF” (Medshine Discovery Inc., priority 2021, published 2025)
Structures can show the parent of a compound that is named as a salt. Where two headings read alike, the source gives them in different places.

Columns and labels:
[1] = system: PC-9 (EGFR del19/T790M/C797S); conditions: J. Med. Chem. 2019, 62, 22, 10272-10293; cited from earlier work
[2] = target: T1, EGFR (L858R/T790M/C797S) (Homo sapiens, UniProt P00533, C797S/L858R/T790M); assay: Kinase inhibitory activity, 33P-ATP filtration-binding (Reaction Biology Corp.); type: biochemical; conditions: read-out: Kinase half-maximal inhibition concentration IC50 EGFR(L858R/T790M/C797S)
T1 construct: Reaction Biology Corp. (assay performed there)
Procedure: Compound assay for kinase inhibitory activity against EGFR (L858R/T790M/C797S), EGFR (del19-E746-A750/T790M/C797S), and EGFR (WT) was done at Reaction Biology Corp. In reaction buffer (20 mM Hepes (pH 7.5), 10 mM magnesium chloride (MgCl2), 1 mM ethylenebis(oxyethylenenitrilo)tetraacetic acid (EGTA), 0.02% polyethylene glycol monododecyl ether (Brij35), 0.02 mg/ml BSA, 0.1 mM sodium vanadate (Na3VO4), 2 mM dithiothreitol (DTT), 1% DMSO), a certain concentration of substances, coenzyme factors, kinases and test compounds (10 doses, 3-fold serial dilutions, 2% DMSO final concentration) were added in sequence, and mixed well. The mixture was incubated at room temperature for 20 minutes. A certain concentration of ^33P-ATP was added to the reaction mixture to initiate reaction, followed by incubation at room temperature for 120 minutes. Finally, the radioactivity of the reactants was detected by filtration-binding method. The final kinase activity was expressed as the ratio of the remaining kinase activity of the test sample to the kinase activity of the DMSO control group. The dose-response relationship curve was fitted and IC50 was calculated using GraphPad software.

[3] = target: Ba/F3-FL-EGFR (L858R/T790M/C797S) (Homo sapiens, UniProt P00533, T790M/C797S/L858R, cells depend on it); assay: Cell proliferation inhibition, CellTiter-Glo; type: cell-based; conditions: 72 hours, read-out: Cell half-maximal inhibition concentration IC50 Ba/F3-FL-EGFR (L858R/T790M/C797S)
Procedure: (§1) AdenosineTri-Phosphate (ATP) is an energy carrier shared by various life activities in nature, and is the smallest unit of energy storage and transfer. The CellTiter-Glo™ living cell assay kit uses luciferase as a detector, and luciferase requires the participation of ATP in the process of luminescence. CellTiter-Glo™ reagent is added to a cell culture medium, and the luminescence value is measured. The light signal is directly proportional to the amount of ATP in the system, and ATP is positively correlated with the number of living cells. Therefore, cell proliferation can be detected by detecting ATP content with the CellTiter-Glo kit. In this assay, the cell lines were Ba/F3-FL-EGFR (L858R/T790M/C797S), Ba/F3-FL-EGFR (WT), Ba/F3-FL-EGFR (L858R), Ba/F3-FL-EGFR (del19-S752-I759), Ba/F3-FL-EGFR (del19-E746-A750/T790M/C797S), Ba/F3-FL-EGFR (L858R/T790M), Ba/F3-FL-EGFR (del19-E746-A750/T790M), Ba/F3-TEL-EGFR (L858R/C797S), Ba/F3-FL-EGFR (del19-E746-A750/C797S) stably transfected cell lines.
(§2) The cell lines were cultured in an incubator at 37° C. and 5% CO2. The cells were periodically passaged, and cells in logarithmic growth phase were taken for plating.
(§3) a) DMSO was used to prepare a 10 mM solution of the compound to be tested, and then the compound to be tested was diluted to 0.3 or 1 mM with DMSO.
(§4) b) Preparation of 1000× compound storage plate (tube): DMSO was used to dilute by 3-fold gradient from the highest concentration to the lowest concentration, with a total of 9 concentrations.
(§5) c) Preparation of 20× compound working solution: 49 μL of cell culture medium was added to a flat-bottomed 96-well transparent drug plate, and 1 μL of compound was pipetted from the 1000× compound storage plate to the cell culture medium of the 96-well transparent drug plate. 1 μL of DMSO was added to the vehicle control. After adding compound or DMSO, the well content was mixed to uniform by aspiration and expelling with pipette.
(§6) a) Cells were stained with trypan blue and viable cells were counted. The cell viability rate was required to be above 90%.
(§7) b) 95 μL of cell suspension (2000 cells/well) was added to each well of the compound detection cell plate, and culture medium without cells (containing 0.1% DMSO) was added to the Min control well.
(§8) c) Dosing in the compound detection cell plate: 5 μL of 20× compound working solution was added to the cell culture plate. 5 μL of DMSO-cell culture mixture was added to the Max control. The final concentration of DMSO was 0.1%.
(§9) d) The culture plate was incubated in an incubator at 37° C., 5% CO2 for 72 hours.
(§10) Cell proliferation inhibition rate (Inhibition Rate) data were processed using the following formula:
Inhibition Rate (Inh %)=100−(RLUDrug−RLUMin)/(RLUMax−RLUMin)*100%.
The inhibition rates corresponding to different concentrations of compounds were calculated, and then GraphPad Prism software was used to draw the inhibition rate curve and the IC50 value was calculated.

[4] = target: Ba/F3-FL-EGFR (L858R) (Homo sapiens, UniProt P00533, L858R, cells depend on it); assay: Cell proliferation inhibition, CellTiter-Glo; type: cell-based; conditions: 72 hours, read-out: Cell half-maximal inhibition concentration IC50 Ba/F3-FL-EGFR (L858R)
Procedure: as §1, §2, §3, §4, §5, §6, §7, §8, §9
(§11) The following steps were performed according to the instruction of Promega CellTiter-Glo luminescence cell viability detection kit (Promega-G7573). • a) The CellTiter-Glo buffer was thawed and allowed to stand to reach room temperature; • b) CellTiter-Glo substrate was allowed to stand to reach room temperature; • c) CellTiter-Glo buffer was added to CellTiter-Glo substrate in a bottle to dissolve the substrate to formulate CellTiter-Glo working solution; • d) The working solution was vortexed slowly for fully dissolution; • e) The cell culture plates were taken out and allowed to stand for 10 minutes to equilibrate to room temperature; • f) 50 μL (equal to half the volume of cell culture solution in each well) of Cell Titer-Glo working solution was added into each well. • g) The culture plates were shaken on an orbital shaker for 2 minutes to induce cell lysis; • h) The culture plates were left at room temperature for 10 minutes to stabilize the luminescence signal; • i) The luminous signal was detected on the PerkinElmer EnVision®2105 plate reader.
(§12) By PerkinElmer EnVision®2105 reading, the corresponding […] value RLU for each well was yielded.
as §10
(§13) Inhibition Rate (Inh %)=100−(RLUDrug−RLUMin)/(RLUMax−RLUMin)*100%. […]

[5] = target: Ba/F3-FL-EGFR (del19-S752-I759) (Homo sapiens, UniProt P00533, DEL752-759, cells depend on it); assay: Cell proliferation inhibition, CellTiter-Glo; type: cell-based; conditions: 72 hours, read-out: Cell half-maximal inhibition concentration IC50 Ba/F3-FL-EGFR (del19-S752-I759)
Procedure: as §1, §2, §3, §4, §5, §6, §7, §8, §9, §11, §12, §10, §13

[6] = target: Ba/F3-FL-EGFR (WT) (Homo sapiens, UniProt P00533); assay: Cell proliferation inhibition, CellTiter-Glo; type: cell-based; conditions: 72 hours, read-out: Cell half-maximal inhibition concentration IC50 Ba/F3-FL-EGFR (WT)
Procedure: as §1, §2, §3, §4, §5, §6, §7, §8, §9, §11, §12, §10, §13

[7] = target: Ba/F3-FL-EGFR (del19-E746-A750/T790M/C797S) (Homo sapiens, UniProt P00533, DEL746-750/T790M/C797S, cells depend on it); assay: Cell proliferation inhibition, CellTiter-Glo; type: cell-based; conditions: 72 hours, read-out: Cell half-maximal inhibition concentration IC50 Ba/F3-FL-EGFR (del19-E746-A750/T790M/C797S)
Procedure: as §1, §2, §3, §4, §5, §6, §7, §8, §9, §11, §12, §10, §13

T1 sequence (P00533 25-1210 T790M/C797S/L858R): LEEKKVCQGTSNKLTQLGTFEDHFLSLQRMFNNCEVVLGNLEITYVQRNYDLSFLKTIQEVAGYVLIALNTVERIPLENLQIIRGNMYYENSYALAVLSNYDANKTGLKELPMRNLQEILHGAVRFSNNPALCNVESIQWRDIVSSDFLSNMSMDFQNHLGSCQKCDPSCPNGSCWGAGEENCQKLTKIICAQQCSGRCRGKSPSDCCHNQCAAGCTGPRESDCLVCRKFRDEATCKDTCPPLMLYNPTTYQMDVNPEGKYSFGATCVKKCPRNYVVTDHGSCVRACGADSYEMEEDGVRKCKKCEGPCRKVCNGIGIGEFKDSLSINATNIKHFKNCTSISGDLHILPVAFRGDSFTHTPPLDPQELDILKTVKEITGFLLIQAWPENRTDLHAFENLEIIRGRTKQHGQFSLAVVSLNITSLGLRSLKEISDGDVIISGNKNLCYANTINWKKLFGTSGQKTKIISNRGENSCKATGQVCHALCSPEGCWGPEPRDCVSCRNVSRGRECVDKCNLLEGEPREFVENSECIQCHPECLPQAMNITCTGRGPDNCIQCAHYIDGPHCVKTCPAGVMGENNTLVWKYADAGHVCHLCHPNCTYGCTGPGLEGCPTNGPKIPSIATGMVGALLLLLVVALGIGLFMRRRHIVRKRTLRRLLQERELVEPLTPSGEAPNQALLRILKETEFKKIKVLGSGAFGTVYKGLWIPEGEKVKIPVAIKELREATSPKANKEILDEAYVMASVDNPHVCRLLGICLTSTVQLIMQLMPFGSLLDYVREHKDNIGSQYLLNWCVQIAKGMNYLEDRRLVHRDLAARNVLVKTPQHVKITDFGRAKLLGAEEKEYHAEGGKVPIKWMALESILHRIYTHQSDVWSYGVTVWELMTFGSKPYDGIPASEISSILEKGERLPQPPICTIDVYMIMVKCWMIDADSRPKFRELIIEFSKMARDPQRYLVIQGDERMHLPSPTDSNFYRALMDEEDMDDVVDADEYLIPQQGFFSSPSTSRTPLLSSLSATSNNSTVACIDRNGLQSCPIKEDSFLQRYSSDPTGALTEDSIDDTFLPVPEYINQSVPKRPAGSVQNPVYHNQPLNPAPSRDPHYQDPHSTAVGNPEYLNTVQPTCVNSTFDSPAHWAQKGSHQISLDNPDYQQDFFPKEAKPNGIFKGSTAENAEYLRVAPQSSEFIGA
Sequence of Ba/F3-FL-EGFR (L858R/T790M/C797S) (P00533 whole entry T790M/C797S/L858R): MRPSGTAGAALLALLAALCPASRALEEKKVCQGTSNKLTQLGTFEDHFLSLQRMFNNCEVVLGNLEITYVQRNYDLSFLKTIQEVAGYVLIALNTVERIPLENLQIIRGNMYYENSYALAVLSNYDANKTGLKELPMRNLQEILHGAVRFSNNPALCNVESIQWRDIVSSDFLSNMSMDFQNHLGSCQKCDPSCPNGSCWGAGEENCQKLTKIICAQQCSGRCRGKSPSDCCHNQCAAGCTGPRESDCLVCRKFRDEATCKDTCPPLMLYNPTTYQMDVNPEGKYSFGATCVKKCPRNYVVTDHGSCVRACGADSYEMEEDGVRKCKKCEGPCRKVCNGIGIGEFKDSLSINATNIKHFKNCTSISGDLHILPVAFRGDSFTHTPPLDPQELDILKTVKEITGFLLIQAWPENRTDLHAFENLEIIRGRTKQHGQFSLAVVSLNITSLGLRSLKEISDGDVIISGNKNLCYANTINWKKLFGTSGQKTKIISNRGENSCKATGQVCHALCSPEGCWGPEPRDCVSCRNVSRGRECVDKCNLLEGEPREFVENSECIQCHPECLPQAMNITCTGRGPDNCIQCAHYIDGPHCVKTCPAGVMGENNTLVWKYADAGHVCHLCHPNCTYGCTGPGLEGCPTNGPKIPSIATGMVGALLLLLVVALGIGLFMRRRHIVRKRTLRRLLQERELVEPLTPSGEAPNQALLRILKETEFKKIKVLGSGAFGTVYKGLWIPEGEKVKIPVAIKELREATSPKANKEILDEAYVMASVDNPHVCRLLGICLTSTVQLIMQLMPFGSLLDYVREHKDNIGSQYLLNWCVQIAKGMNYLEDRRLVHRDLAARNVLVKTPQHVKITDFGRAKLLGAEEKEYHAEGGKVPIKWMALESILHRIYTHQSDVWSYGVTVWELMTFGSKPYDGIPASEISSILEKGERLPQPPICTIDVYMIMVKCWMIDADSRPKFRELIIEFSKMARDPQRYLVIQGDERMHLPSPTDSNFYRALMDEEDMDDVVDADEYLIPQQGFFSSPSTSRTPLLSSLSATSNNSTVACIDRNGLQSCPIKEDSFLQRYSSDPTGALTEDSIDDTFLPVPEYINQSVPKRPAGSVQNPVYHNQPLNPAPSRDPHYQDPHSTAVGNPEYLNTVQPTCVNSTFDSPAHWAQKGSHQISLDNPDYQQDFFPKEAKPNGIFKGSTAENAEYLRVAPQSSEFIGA
Sequence of Ba/F3-FL-EGFR (WT) (P00533 whole entry, change not shown): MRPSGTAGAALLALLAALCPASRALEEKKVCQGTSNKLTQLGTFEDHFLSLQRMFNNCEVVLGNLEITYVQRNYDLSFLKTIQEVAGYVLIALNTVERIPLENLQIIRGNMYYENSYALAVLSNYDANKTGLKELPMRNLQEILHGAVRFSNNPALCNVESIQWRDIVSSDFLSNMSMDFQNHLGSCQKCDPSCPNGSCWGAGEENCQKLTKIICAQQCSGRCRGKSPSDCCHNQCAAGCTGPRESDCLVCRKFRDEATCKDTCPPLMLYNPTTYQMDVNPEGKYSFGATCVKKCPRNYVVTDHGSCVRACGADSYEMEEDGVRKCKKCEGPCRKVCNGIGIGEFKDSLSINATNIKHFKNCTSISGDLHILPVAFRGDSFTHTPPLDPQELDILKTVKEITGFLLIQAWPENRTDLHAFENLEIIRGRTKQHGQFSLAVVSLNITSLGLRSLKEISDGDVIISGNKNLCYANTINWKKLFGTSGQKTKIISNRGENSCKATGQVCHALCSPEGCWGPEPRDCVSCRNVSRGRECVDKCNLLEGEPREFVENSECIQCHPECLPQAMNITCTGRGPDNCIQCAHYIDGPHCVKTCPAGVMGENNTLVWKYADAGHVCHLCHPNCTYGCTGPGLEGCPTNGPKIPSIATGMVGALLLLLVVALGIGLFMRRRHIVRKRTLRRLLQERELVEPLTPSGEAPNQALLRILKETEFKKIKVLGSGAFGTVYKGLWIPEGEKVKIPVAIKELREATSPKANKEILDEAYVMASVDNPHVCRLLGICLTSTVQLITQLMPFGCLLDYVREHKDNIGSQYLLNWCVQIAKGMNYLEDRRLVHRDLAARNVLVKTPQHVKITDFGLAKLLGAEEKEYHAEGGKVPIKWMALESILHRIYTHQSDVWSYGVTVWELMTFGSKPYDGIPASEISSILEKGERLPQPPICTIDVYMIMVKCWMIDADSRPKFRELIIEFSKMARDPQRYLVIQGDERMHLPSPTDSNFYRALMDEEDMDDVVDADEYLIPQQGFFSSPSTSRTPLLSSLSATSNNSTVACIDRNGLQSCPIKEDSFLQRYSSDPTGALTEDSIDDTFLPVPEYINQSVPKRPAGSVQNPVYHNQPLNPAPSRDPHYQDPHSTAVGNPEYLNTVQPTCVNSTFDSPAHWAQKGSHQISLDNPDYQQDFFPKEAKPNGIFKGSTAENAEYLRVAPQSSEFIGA
Sequence of Ba/F3-FL-EGFR (del19-E746-A750/T790M/C797S) (P00533 with tags, fused parts or gaps DEL746-750/T790M/C797S): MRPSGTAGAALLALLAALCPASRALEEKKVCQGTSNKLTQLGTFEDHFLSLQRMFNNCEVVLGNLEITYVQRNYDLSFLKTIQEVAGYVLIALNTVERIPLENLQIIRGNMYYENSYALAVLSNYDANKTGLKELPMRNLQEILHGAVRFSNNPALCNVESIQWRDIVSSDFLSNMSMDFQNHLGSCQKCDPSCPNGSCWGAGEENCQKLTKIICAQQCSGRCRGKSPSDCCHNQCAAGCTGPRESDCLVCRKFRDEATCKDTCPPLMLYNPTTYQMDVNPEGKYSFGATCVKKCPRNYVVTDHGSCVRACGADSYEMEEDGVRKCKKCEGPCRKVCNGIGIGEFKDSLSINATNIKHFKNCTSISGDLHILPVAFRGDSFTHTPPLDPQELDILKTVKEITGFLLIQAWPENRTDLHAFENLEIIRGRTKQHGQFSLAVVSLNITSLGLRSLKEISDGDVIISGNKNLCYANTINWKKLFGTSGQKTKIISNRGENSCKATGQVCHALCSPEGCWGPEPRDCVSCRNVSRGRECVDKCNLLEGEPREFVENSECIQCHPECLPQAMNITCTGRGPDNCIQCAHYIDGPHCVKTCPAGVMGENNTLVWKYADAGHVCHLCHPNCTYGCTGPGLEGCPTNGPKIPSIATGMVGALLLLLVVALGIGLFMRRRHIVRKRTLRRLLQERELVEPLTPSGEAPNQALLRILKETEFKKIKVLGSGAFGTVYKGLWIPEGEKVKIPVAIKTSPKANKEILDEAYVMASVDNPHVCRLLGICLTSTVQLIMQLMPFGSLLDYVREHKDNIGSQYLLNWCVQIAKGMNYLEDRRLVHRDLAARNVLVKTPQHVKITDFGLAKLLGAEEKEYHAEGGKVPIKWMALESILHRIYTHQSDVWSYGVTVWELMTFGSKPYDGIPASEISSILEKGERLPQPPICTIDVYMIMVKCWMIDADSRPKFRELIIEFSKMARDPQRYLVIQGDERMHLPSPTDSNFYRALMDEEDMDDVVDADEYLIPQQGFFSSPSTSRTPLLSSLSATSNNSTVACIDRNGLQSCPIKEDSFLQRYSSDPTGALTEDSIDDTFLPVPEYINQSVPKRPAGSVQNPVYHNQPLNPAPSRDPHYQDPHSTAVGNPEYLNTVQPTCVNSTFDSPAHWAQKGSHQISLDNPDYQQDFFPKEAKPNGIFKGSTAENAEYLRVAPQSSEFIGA

| SMILES | GI50 [3] [nM] | also measured |
| --- | --- | --- |
| Cc1cc2cc(n1)-c1cnn(C)c1OCCC[C@@H](C)Cn1c(nc3ccc(CN4CCN(C)CC4)cc31)NC2=O [BI-4020] |  | Anti-tumor efficacy [1]: good anti-tumor efficacy |
| Cc1cc2cc(n1)-c1cnn(C)c1OCCC[C@@H](C)CN1/C(=N/C2=O)Nc2ccc(P(C)(C)=O)cc21 [WX-001 (trifluoroacetate)] |  | IC50 ([2]; ATP 10 μM): 0.159 nM; IC50 ([2]; ATP 100 μM): 1.17 nM |
| CCS(=O)(=O)c1ccc2c(c1)N1C[C@H](C)CCCOc3c(cnn3C)-c3cc(cc(C)n3)C(=O)/N=C/1N2 [WX-002 (formate)] |  | IC50 ([2]; ATP 10 μM): 0.468 nM |
| CCP(=O)(CC)c1ccc2c(c1)N1C[C@H](C)CCCOc3c(cnn3C)-c3cc(cc(C)n3)C(=O)/N=C/1N2 [WX-004 (trifluoroacetate)] |  | IC50 ([2]; ATP 100 μM): 1.75 nM |
| Cc1cc2cc(n1)-c1cnn(C)c1OCCC[C@@H](C)CN1/C(=N/C2=O)Nc2ccc(P(=O)(C(C)C)C(C)C)cc21 [WX-005 (trifluoroacetate)] | 7.2 | IC50 ([2]; ATP 100 μM): 1.63 nM |
| Cc1cc2cc(n1)-c1cnn(C)c1OCCC[C@@H](C)CN1/C(=N/C2=O)Nc2ccc(N=S(C)(C)=O)cc21 [WX-006 (trifluoroacetate)] | 2.3 | IC50 ([2]; ATP 100 μM): 0.831 nM |
| Cc1cc2cc(n1)-c1cnn(C)c1OCCC[C@@H](C)CN1/C(=N/C2=O)Nc2ccc(N=S3(=O)CCCCC3)cc21 [WX-011] | 4.4 |  |
| CCS(=O)(CC)=Nc1ccc2c(c1)N1C[C@H](C)CCCOc3c(cnn3C)-c3cc(cc(C)n3)C(=O)/N=C/1N2 [WX-012 (hydrochloride)] | 7.3 |  |
| Cc1cc2cc(n1)-c1cnn(C)c1OCCC[C@@H](C)CN1/C(=N/C2=O)Nc2ccc(N=S3(=O)CCNCC3)cc21 [WX-014] | 14.3 | GI50 [4]: 53.9 nM; GI50 [5]: 38.1 nM; GI50 [6]: 421 nM; GI50 [7]: 2.9 nM |
| Cc1cc2cc(n1)-c1cnn(C)c1OCCC[C@@H](C)CN1/C(=N/C2=O)Nc2ccc(N=S3(=O)CCN(C)CC3)cc21 [WX-015] | 10.6 |  |
| Cc1cc2cc(n1)-c1cnn(C)c1OCCC[C@@H](C)CN1/C(=N/C2=O)Nc2ccc(N=S3(=O)CCN(C4CCN(C)CC4)CC3)cc21 [WX-022] | 12.7 |  |
| Cc1cc2cc(n1)-c1cnn(C)c1OCCC[C@@H](C)CN1/C(=N/C2=O)Nc2ccc(N=S3(=O)CCC4(CCN(C)CC4)CC3)cc21 [WX-023] | 2.7 |  |
| Cc1cc2cc(n1)-c1cnn(C)c1OCCC[C@@H](C)CN1/C(=N/C2=O)Nc2ccc(N=S3(=O)CC4CN(C)CC4C3)cc21 (some centres unmarked) [WX-024] | 1.4 |  |
| Cc1cc2cc(n1)-c1cnn(C)c1OCCC[C@@H](C)CN1/C(=N/C2=O)Nc2ccc(N=S3(=O)CC4(COC4)C3)cc21 [WX-025] | 5.7 |  |
| Cc1cc2cc(n1)-c1cnn(C)c1OCCC[C@@H](C)CN1/C(=N/C2=O)Nc2ccc(N=S3(=O)CCC(N4CCN(C)CC4)CC3)cc21 (some centres unmarked) [WX-026] | 11.6 |  |
| Cc1cc2cc(n1)-c1cnn(C)c1OCCC[C@@H](C)CN1/C(=N/C2=O)Nc2ccc(N=S3(=O)CCC4(CCOCC4)CC3)cc21 [WX-028] | 3.3 |  |
| Cc1cc2cc(n1)-c1cnn(C)c1OCCC[C@@H](C)CN1/C(=N/C2=O)Nc2ccc(N=S3(=O)CCC4(CC3)COC4)cc21 [WX-029] | 5.5 |  |
| Cc1cc2cc(n1)-c1cnn(C)c1OCCC[C@@H](C)CN1/C(=N/C2=O)Nc2ccc(N=S3(=O)CCN(C4COC4)CC3)cc21 [WX-030] | 13 |  |
| Cc1cc2cc(n1)-c1cnn(C)c1OCCC[C@@H](C)CN1/C(=N/C2=O)Nc2ccc(N=S3(=O)CCC4(CC3)CN(C)C4)cc21 [WX-031] | 2.1 |  |
